A short description of data set [1]: Stability-indicating HPLC analysis of baclofen concentration / chemical stability. The settings on record: for Chemical Stability (% Remaining): room temperature. The class given is physicochemical. Here is the method: The test solutions in vials and syringes are thoroughly mixed prior to sampling. A 1-mL sample of each test solution from three test syringes and three test vials is collected and chemically analyzed. […] Triplicate HPLC determinations are performed at each time point if needed to determine the maximum stability of baclofen. The contents of the remaining containers are visually inspected at each assay time point and 6-mL samples are collected and fully evaluated for physical stability as indicated under Physical Stability Evaluation above after 1, 3, 7, 14, 21, 30 and 60 days.
HPLC Analysis to Confirm Baclofen Concentration. A stability-indicating HPLC analytical method adapted from published methods was used to determine the concentration of the baclofen samples evaluated in this testing (Sitaram et al., 1997; Gupta et al., 1998; Johnson C E, et al., 1993; Allen L V, et al., 1996. This method was used to document that at the higher concentrations the entire amount of baclofen had dissolved, and the solutions were near the target concentrations. All tested sample solutions were filtered through 0.22-micron filters to remove remaining undissolved drug, if any, prior to analysis. The HPLC analytical method used is cited in Tables 1 and 2. […] Initial baclofen concentrations for the nominally 4, 5, 6, and 8 mg/mL test solutions were within 93 to 104% of the target concentrations.
The liquid chromatograph is a Waters LC Module-1 Plus having a multisolvent pump, variable wavelength UV detector, and autosampler in one unit. The system is also controlled and integrated by a personal computer running chromatography management software.

The conditions of data set [2]: cited from earlier work.
Data set [3] can be described thus: Practical solubility by direct dissolution in normal saline, HPLC after 0.22-micron filtration. The class given is physicochemical. The settings on record: about 23° C. On the procedure:
The inventors attempted to prepare aqueous baclofen solutions at concentrations of 3 mg/mL, 4 mg/mL, and 5 mg/mL by direct dissolution in 0.9% sodium chloride injection, USP (normal saline). The normal saline was commercially procured by the inventors and was at ambient room temperature (about 23° C.) for use in the testing. Appropriate amounts of authentic baclofen powder were weighed and added to the normal saline and shaken to aid in dissolution. […] Both the 4-mg/mL and especially the 5-mg/mL concentration retained large amounts of undissolved powder. […] The solutions were visibly unacceptable for use as an injection. […] The inventors believe that this the concentration represents the “practical solubility” of baclofen.
As used herein, the “practical solubility” is the concentration of baclofen that can be dissolved using simple practical dissolution steps such as adding the powder to an aqueous solvent and then shaking or stirring the solvent by hand or with a mechanical device. When attempting to prepare solutions having concentrations higher than the practical solubility concentration, it is common to observe residual undissolved matter, precipitation of microparticulates, or both.

In brackets after ≈: the same amount, converted by molar mass. Marks after values point to notes of the source that are not given here.

In general, solubility refers to the dissolved amount per volume that the medium holds. In the case of `NCC(CC(=O)O)c1ccc(Cl)cc1` (stereo not shown) [Baclofen, 4-amino-3-(p-chlorophenyl) butyric acid], the “Chemical Stability (% Remaining)” value in data set [1] (3 mg/ml, 24 months, calculated based on concentrations measured at six months) is recorded as 101.7 ± 1.0^a % Remaining; in data set [1] (3.5 mg/ml, 24 months, calculated based on concentrations measured at six months), 100.0 ± 0.4^a % Remaining; in data set [1] (4 mg/ml, 12 months) it was 99.9 ± 0.5 % Remaining; in data set [1] (4 mg/ml, 24 months, calculated based on concentrations measured at six months), 99.5 ± 1.2^a % Remaining; in data set [1] (5 mg/ml, 12 months), 100.6 ± 0.5 % Remaining; in data set [1] (6 mg/ml, 12 months) it was 102.9 ± 1.0 % Remaining. Also, the “loss of drug during storage” value in data set [1] (4 mg/mL, Examples 1 and 2, at least one year at 23° C.) was “no loss of drug”. Besides, the “initial baclofen concentration relative to target concentration” value in data set [1] (nominally 4, 5, 6, and 8 mg/mL test solutions, filtered 0.22-micron, HPLC) lay within 93 to 104%. In addition, the “concentration obtained by dissolving in acid” value in data set [2] (aqueous 0.1N HCl (Ahuja 1985)) is “greater than 20 mg/ml”. Also, in data set [2] (aqueous 0.1N NaOH (Ahuja 1985)), the “concentration obtained by dissolving in base” value is reported as “greater than 20 mg/ml”. The solubility in chloroform entry in data set [2] (chloroform) is “insoluble”. Further, the solubility in methanol result in data set [2] (methanol) is “very slightly soluble”. In data set [2] (room temperature, equilibrium reached over weeks or months (Ahuja, 1985)), the “upper limit on room temperature aqueous solubility” value was 4300 µg/mL. For the same compound, the solubility in water entry in data set [2] (water) was “slightly soluble”. The solubility at 1 week in data set [3] (0.9% sodium chloride injection, USP (normal saline), saline or isotonic, thermodynamic from solid, normal saline, putative 4 mg/mL and 5 mg/mL samples, shaking one week, filtered 0.22-micron, HPLC, read-out: amount of baclofen actually dissolved (practical solubility)) is 3300 to 3500 µg/mL (≈ 15.4 to 16.4 mM). The “complete dissolution by direct dissolution” value in data set [3] (4-mg/mL and 5-mg/mL in normal saline, vigorous shaking 60 minutes, then automated shaking for one week) is “failed to result in complete dissolution”.

The values are drawn from US8357379B2, “High concentration baclofen preparations” (Board of Regents, The University of Texas System, priority 2004, dated 2013).
